Source: article PMC2409936, “Phase I and pharmacokinetic study of XR11576, an oral topoisomerase I and II inhibitor, administered on days 1–5 of a 3-weekly cycle in patients with advanced solid tumours” (British Journal of Cancer, 2004)

Key:
[1] = rats; cited from earlier work
[2] = tested on: patients with advanced solid tumours; assay: Phase I toxicity assessment (NCI-CTC version 2.0), oral XR11576 days 1–5 every 21 days; assay type: in vivo
Description: The total dose prescribed was rounded to the nearest 5 mg. […] Dose escalations between cohorts were based on the prior dose level's toxicity and pharmacological data, allowing a dose escalation up to 100% (which was determined by the worst significant toxicity). […] The stopping dose was defined as the dose level that induced dose-limiting toxicity (DLT) during course 1 in ⩾2/3 or ⩾2/6 patients. Dose-limiting toxicities were defined as grade 4 granulocytopenia for 7 or more days, febrile neutropenia, platelets <25.0 × 10^9 l^−1 and/or nonhaematological toxicity ⩾grade 3. Nausea and vomiting subsequently responding to antiemetic therapy were excluded from DLT. […] If a patient encountered DLT, the dose of XR11576 was decreased by one dose level at re-treatment. […] At the dose recommended for further studies, the number of patients treated could be expanded to 12. Toxicities were evaluated according to the National Cancer Institute Common Toxicity Criteria, version 2.0 (ctep.info.nih.gov/reporting/in dex.html).
Before treatment, a complete medical history was recorded and a physical examination performed. A complete blood count (CBC) including white blood cell differential and serum biochemistry, which involved sodium, potassium, calcium, urea, creatinine, uric acid, total protein, albumin, total bilirubin, alkaline phosphatase, γ-glutamyl transferase, aspartate aminotransferase, alanine aminotransferase, lactate dehydrogenase and glucose, were performed, as were urinalysis, pregnancy test, relevant tumour markers, electrocardiogram and a chest X-ray. […] Weekly evaluations included history, physical examination, toxicity assessment according to the CTC criteria version 2.0, and serum chemistries. Complete blood count was determined twice weekly. Tumour evaluation was performed after every two courses according to the Response Evaluation Criteria in Solid Tumours (RECIST) ([Therasse et al, 2000]). Patients were taken off protocol at the onset of disease progression.

[3] = orally on days 1–5 every 3 weeks

## COc1cccc2c1ccc1nc3cccc(C(=O)N[C@H](C)CN(C)C)c3nc12 [XR11576, 4-methoxy-benzo[a]phenazine-11-carboxylic acid (2-dimethulamino-1-R-methyl-ethyl)-amide]
[1]
  oral availability: 54±32%
[2]; 30 mg
  nausea and vomiting, median duration: 2 days
  nausea and vomiting, range of duration: 1 to 5 days
[2]; 30 mg day^−1, all cycles
  Diarrhoea grade 1, worse toxicity per cycle: 1
  Fatigue grade 1, worse toxicity per cycle: 1
  Fatigue grade 2, worse toxicity per cycle: 2
  Nausea grade 1, worse toxicity per cycle: 3
  Nausea grade 2, worse toxicity per cycle: 2
  Vomiting grade 1, worse toxicity per cycle: 3
[2]; 30 mg day^−1, first cycle
  Fatigue grade 1, no. of patients: 1
  Fatigue grade 2, no. of patients: 1
  Nausea grade 1, no. of patients: 2
[2]; 60 mg day^−1, all cycles
  Diarrhoea grade 1, worse toxicity per cycle: 1
  Fatigue grade 1, worse toxicity per cycle: 2
  Fatigue grade 2, worse toxicity per cycle: 2
  Fatigue grade 3, worse toxicity per cycle: 2
  Nausea grade 1, worse toxicity per cycle: 6
  Vomiting grade 1, worse toxicity per cycle: 4
[2]; 60 mg day^−1, first cycle
  Diarrhoea grade 1, no. of patients: 1
  Fatigue grade 1, no. of patients: 1
  Fatigue grade 3, no. of patients: 1
  Nausea grade 1, no. of patients: 3
  Vomiting grade 1, no. of patients: 2
[2]; 120 mg day^−1, all cycles
  Diarrhoea grade 1, worse toxicity per cycle: 3
  Diarrhoea grade 2, worse toxicity per cycle: 3
  Diarrhoea grade 3, worse toxicity per cycle: 1
  Fatigue grade 1, worse toxicity per cycle: 5
  Fatigue grade 2, worse toxicity per cycle: 5
  Fatigue grade 3, worse toxicity per cycle: 1
  Nausea grade 1, worse toxicity per cycle: 8
  Nausea grade 2, worse toxicity per cycle: 7
  Plt grade 1, worse toxicity per cycle: 1
  Vomiting grade 1, worse toxicity per cycle: 3
  Vomiting grade 2, worse toxicity per cycle: 5
  Vomiting grade 3, worse toxicity per cycle: 2
  WBC grade 1, worse toxicity per cycle: 2
[2]; 120 mg day^−1, first cycle
  DLT, no. of patients: 1
  Diarrhoea grade 1, no. of patients: 1
  Diarrhoea grade 2, no. of patients: 2
  Diarrhoea grade 3, no. of patients: 1
  Fatigue grade 1, no. of patients: 3
  Fatigue grade 2, no. of patients: 3
  Nausea grade 1, no. of patients: 5
  Nausea grade 2, no. of patients: 3
  Vomiting grade 1, no. of patients: 1
  Vomiting grade 2, no. of patients: 2
  Vomiting grade 3, no. of patients: 2
  WBC grade 1, no. of patients: 1
[2]; 150 mg day^−1, all cycles
  ANC grade 4, worse toxicity per cycle: 1
  Diarrhoea grade 1, worse toxicity per cycle: 1
  Diarrhoea grade 2, worse toxicity per cycle: 1
  Diarrhoea grade 3, worse toxicity per cycle: 1
  Fatigue grade 2, worse toxicity per cycle: 4
  Nausea grade 1, worse toxicity per cycle: 2
  Nausea grade 2, worse toxicity per cycle: 2
  Plt grade 1, worse toxicity per cycle: 1
  Vomiting grade 1, worse toxicity per cycle: 1
  Vomiting grade 2, worse toxicity per cycle: 3
  WBC grade 2, worse toxicity per cycle: 1
[2]; 150 mg day^−1, first cycle
  ANC grade 4, no. of patients: 1
  DLT, no. of patients: 1
  Diarrhoea grade 1, no. of patients: 1
  Diarrhoea grade 2, no. of patients: 1
  Diarrhoea grade 3, no. of patients: 1
  Fatigue grade 2, no. of patients: 3
  Nausea grade 1, no. of patients: 1
  Nausea grade 2, no. of patients: 2
  Plt grade 1, no. of patients: 1
  Vomiting grade 2, no. of patients: 3
  WBC grade 2, no. of patients: 1
[2]; 180 mg day^−1, all cycles
  ANC grade 3, worse toxicity per cycle: 1
  Diarrhoea grade 1, worse toxicity per cycle: 1
  Diarrhoea grade 2, worse toxicity per cycle: 1
  Diarrhoea grade 4, worse toxicity per cycle: 1
  Fatigue grade 1, worse toxicity per cycle: 1
  Fatigue grade 2, worse toxicity per cycle: 1
  Fatigue grade 3, worse toxicity per cycle: 2
  Nausea grade 1, worse toxicity per cycle: 3
  Nausea grade 2, worse toxicity per cycle: 1
  Nausea grade 3, worse toxicity per cycle: 1
  Plt grade 1, worse toxicity per cycle: 2
  Vomiting grade 2, worse toxicity per cycle: 5
[2]; 180 mg day^−1, first cycle
  ANC grade 3, no. of patients: 1
  DLT, no. of patients: 1
  Diarrhoea grade 1, no. of patients: 1
  Diarrhoea grade 2, no. of patients: 1
  Fatigue grade 1, no. of patients: 1
  Fatigue grade 2, no. of patients: 1
  Fatigue grade 3, no. of patients: 1
  Nausea grade 1, no. of patients: 3
  Plt grade 1, no. of patients: 2
  Vomiting grade 2, no. of patients: 3
[2]; 180 mg day^−1 dose level
  patients in whom DLT was encountered: two of three patients
[2]; all cycles
  diarrhoea grade 1–2, share of cycles: 26%
  diarrhoea grade 3–4, share of cycles: 6%
[2]; all dose levels
  diarrhoea, median day of onset: 5 days
  diarrhoea, median duration: 4 days
  diarrhoea, range of day of onset: 1 to 15 days
  diarrhoea, range of duration: 1 to 14 days
  overall haematological toxicity: mild
  patients with grade 1 anaemia: seven patients
  patients with grade 2 anaemia: four patients
[2]; days 1–5 every 3 weeks
  recommended dose for further studies: 120 mg/day
[2]; dose level 180 mg
  nausea and vomiting, median duration: 6 days
  nausea and vomiting, range of duration: 1 to 20 days
[2]; during treatment
  patients who developed grade 1 alopecia: one patient
[2]; heavily pretreated patient, not complicated by fever
  patients with grade 4 neutropenia: one patient
[2]; in vivo
  treatment-related deaths: No treatment-related deaths
[2]; limited to grade 1 and 2
  patients with thrombocytopenia: three patients
[2]; [3]
  dose-limiting toxicities (DLT): diarrhoea and fatigue
  maximum tolerated dose (MTD): 180 mg/day
[2]; prior to treatment and following first drug administration
  abnormalities in ECG tracings: No significant abnormalities
